Where two headings read alike, the source gives them in different places.
Assays:
HBV = test: Anti-HBV activity, intracellular HBV DNA by real-time PCR (HBV-AVE-HepG2.117); format: cell-based, Hepatitis B virus; conditions: read-out: HBV-AVE-HepG2.117 EC50 (μM; mean value)
Protocol: The anti HBV activity was measured using the HepG2.117 cell line, a stable, inducible HBV producing cell line, which replicates HBV in the absence of doxicycline (Tet-off system). The HepG2 cell line is available from ATCC®) under number HB-8065. Transfection of the HepG2 cell line can be as described in Sun and Nassal 2006 Journal of Hepatology 45 (2006) 636-645 “Stable HepG2- and Huh7-based human hepatoma cell lines for efficient regulated expression of infectious hepatitis B virus”.
For the antiviral assay, HBV replication was induced, followed by a treatment with serially diluted compound in 96-well plates. After 3 days of treatment, the antiviral activity was determined by quantification of intracellular HBV DNA using real-time PCR and an HBV specific primer set and probe.

HepG2.117 cells = test: Cytotoxicity, ATPlite cell viability (TOX-HepG2.117); format: cell-based, human
Protocol: (§1) Cytotoxicity of the compounds was tested using HepG2 or HepG2.117 cells, incubated for 3 days in the presence of compounds. The viability of the cells was assessed using the Perkin Elmer ATPlite Luminescence Assay System.”

[1] = as above; format: cell-based, human; conditions: human; HepG2.117 cells, incubated for 3 days, ATPlite, mean value
Protocol: as §1

[2] = HepG2.117 cell line, 3 days of treatment, intracellular HBV DNA, mean value
[3] = Hepatitis B virus, HepG2.117, 72 h, HepG2.117 cell line, 3 days of treatment, intracellular HBV DNA, mean value

Row | Structure (SMILES) | EC50 (HBV; [2]) | CC50 (HepG2.117 cells) | EC50 (HBV; Hepatitis B virus, HepG2.117, 72 h) | CC50 at 3 days [1] | EC50 (HBV; [3])
1 | C[C@H]1[C@H](C(=O)Nc2cc(F)c(F)c(F)c2)CCN1C(=O)C(=O)NC1(c2c[nH]nn2)CC(F)(F)C1 [C3′] | > 2.5 µM | > 50 µM |  |  | 
2 | C[C@H]1[C@H](C(=O)Nc2ccc(F)c(C#N)c2)CCN1C(=O)C(=O)NC1(c2c[nH]nn2)CC(F)(F)C1 [C6′] | 2.91 µM | > 50 µM |  |  | 
3 | C[C@H]1[C@@H](C(=O)Nc2cc(F)c(F)c(Br)c2)CCN1C(=O)C(=O)NC1(c2c[nH]nn2)CC(F)(F)C1 [C21, (2S,3S)—N-(3-bromo-4,5-difluorophenyl)-1-(2-((3,3-difluoro-1-(1H-1,2,3-triazol-4-yl)cyclobutyl)amino)-2-oxoacetyl)-2-methylpyrrolidine-3-carboxamide] |  |  | 0.012 µM | > 50 µM | 
4 | C[C@H]1[C@@H](C(=O)Nc2ccc(F)c(F)c2F)CCN1C(=O)C(=O)NC1(c2c[nH]nn2)CC(F)(F)C1 [C22] |  |  |  | > 50 µM | 0.026 µM
5 | Cc1c(F)ccc(NC(=O)[C@H]2CCN(C(=O)C(=O)NC3(c4c[nH]nn4)CC(F)(F)C3)[C@H]2C)c1F [C23] |  |  |  | > 50 µM | 0.016 µM
6 | Cc1cc(NC(=O)[C@H]2CCN(C(=O)C(=O)NC3(c4c[nH]nn4)CC(F)(F)C3)[C@H]2C)cc(Cl)c1F [C24] |  |  |  | > 50 µM | 0.012 µM
7 | C[C@H]1[C@@H](C(=O)Nc2cc(F)c(F)c(F)c2)CCN1C(=O)C(=O)NC1(c2nn[nH]c2Cl)CC(F)(F)C1 [C26] |  |  |  | > 50 µM | 0.176 µM
8 | Cc1cc(NC(=O)[C@H]2CCN(C(=O)C(=O)NC3(c4c[nH]nn4)CC(F)(F)C3)[C@H]2C)cc(F)c1F [C27] |  |  |  | > 50 µM | 0.012 µM
9 | C[C@H]1C[C@H](C(=O)Nc2cc(F)c(F)c(F)c2)[C@H](C)N1C(=O)C(=O)NC1(c2c[nH]nn2)CC(F)(F)C1 [C35] |  |  |  | > 50 µM | 0.011 µM
10 | C[C@H]1C[C@H](C(=O)Nc2cc(F)c(F)c(F)c2)[C@H](C)N1C(=O)C(=O)NC(CC(F)(F)F)c1c[nH]nn1 (some centres unmarked) [C36] |  |  |  | > 50 µM | < 0.01 µM
11 | Cc1[nH]nnc1C1(NC(=O)C(=O)N2CC[C@H](C(=O)Nc3cc(F)c(F)c(F)c3)[C@@H]2C)CC(F)(F)C1 [C38] |  |  |  | > 50 µM | 0.012 µM
12 | C[C@H]1[C@@H](C(=O)Nc2cc(F)c(F)c(F)c2)CCN1C(=O)C(=O)N[C@]1(c2c[nH]nn2)C[C@H](C(F)F)C1 [C39c] |  |  |  | > 50 µM | 0.062 µM
13 | C[C@H]1[C@@H](C(=O)Nc2cc(F)c(F)c(F)c2)CCN1C(=O)C(=O)N[C@]1(c2c[nH]nn2)C[C@@H](C(F)F)C1 [C39t] |  |  |  | > 50 µM | 0.033 µM
